Two compounds from patent US11607404B2, “Combinations of RAD51 and PARP inhibitors” (Cyteir Therapeutics, Inc., priority 2019, dated 2023) can be followed below.

Series [1] deals with Daudi cell line (AID positive). As to the kind of experiment: Primary screening cell killing assay (Cell-Titer Glo, Day 7). In kind it is cell-based. As to conditions: Homo sapiens. How it is done: (§1) Primary screening was a phenotypic screen that utilized the synthetic lethal interaction between AID and RAD51 to identify compounds that were both potent and on target. AID expressing cells are dependent upon RAD51 for survival; inhibiting RAD51 in AID positive cells results in a cytotoxic effect.
(§2) The first step was to set up a cell killing assay in the Daudi cell line (AID positive). A 96 well u-bottom plate was prepared by writing the experiment number, plate number, date and initials in the top right corner of the plate lid. With a sterile 300 ml reservoir, and 25 ml serological pipette, evaporation buffer media was pipetted into reservoir in 25 ml increments. Using the liquid handler, 150 ul of evaporation buffer media was pipetted from reservoir into rows A and H, and Columns 1 and 12 of the 96 well u-bottom plate. Cell cultures were counted to obtain the density of cells per ml, and the culture viability. The cell density information was used to obtain 1,000,000 cells from culture using a 5 mL serological pipette into an epi tube. The cell density information from the culture was used to calculate the number of cells and volume of media needed for the assay to seed 1250 cells in 130 ul of media per available culture well in the 96 well u-bottom plate. Rows B through F were used for cells (50 wells in total), with row G left for an empty media control. The calculation was overestimated by 10 mL to account for the dead volume in the 300 ml reservoir. Once the media volume was calculated, the appropriate volume of media was pipetted in 25 mL increments into the 250 mL bottle using a 25 mL serological pipette. The 250 ml bottle was capped tightly, and placed into a 37° C. water bath for 2 minutes. While the culture media was warming, 10 mL of fresh media was pipetted from the 500 mL culture media bottle into a sterile 25 mL reservoir. Using the Eppendorf multichannel pipette, 130 ul of media was piptted from the 25 mL reservoir into row G of the 96 well u-bottom plate. Once the 250 mL bottle of media was warmed, the volume of culture needed was pipetted into the bottle, and mixed gently with a 25 mL serological pipette as to not create bubbles, and then the contents of the bottle were pipetted into a new 300 mL reservoir. Using the liquid handler, 130 ul of culture was pipetted from the 300 mL reservoir into rows B through F of the 96 well u-bottom plate. Once the culture was added, the plate was placed into a 37° C. incubator until the compound master plate was prepared for use.
(§3) Two 96 well u-bottom plates were prepared by writing the master plate name in the upper right corner of the plate lid. Labeling one DMSO master and the other Media Master. The compounds of interest were obtained from the laboratory freezer, and placed into a 25 well storage box with a lid, and set the box aside. The compounds were vortexed after thawing but before use. Using an automatic multichannel pipette, 20 ul of 100% DMSO was pipetted into wells B3-B11 through G3-G11 of the DMSO master plate. For each compound on the master plate, 50 ul of the compound were pipetted in the appropriate well of row 2 (reference plate map to determine appropriate well). A serial dilution was prepared beginning by aspirating 20 ul from row 2 and mixing with row 3, repeating until row 11 was reached. Using the liquid handler, 194 ul of Daudi media was dispensed into wells B2-B11 through G2-G11 of the Media master plate. Using the liquid handler, 6 ul from the DMSO master plate was aspirated and dispensed into the media master plate, mixing 100 ul twice.
Compounds from master plate were then added to the culture plate. The culture plates were removed from the incubator, and set inside the biosafety cabinet. Using a liquid handler, 20 ul from wells B2 to B11 through G2 to G11 of master plate were aspirated, and dispensed into wells B2 to B11 through G2 to G11 of culture plate. This set was continued with each culture plate. […]

Series [2] has as its system WI-38 cells (AID negative). Briefly: Primary screening cell killing assay repeated in AID negative cells. In kind it is cell-based, Human. How it is done:
as §1
Percent cell death and EC50 values were calculated by comparing the cell viability of the compound treated wells to the non-treated wells. Normalized RLU values were obtained by subtracting the media well values from each of the wells in the same column, and then dividing that value by the DMSO treated cells values. The percent kill was then calculated by subtracting the normalized RLU value from 1 and multiplying by 100. The average normalized percent kill value and standard error of the mean was then calculated. The kill values were then inputted into Prism with the corresponding standard errors. In Prism a non-linear regression line was plotted with the data points using a semi-log scale, and the EC50 value was calculated.
The activity of the claimed compounds was measured in a variety of cell lines with different expression levels of activation induced cytidine deaminase (AICDA). The potency assay was repeated in all of the listed cell lines and the EC50 values recorded.

A short description of series [3]: Bi-directional Caco-2 permeability. In kind it is in vitro ADME. The settings on record: human. As for the experimental part:
Bi-directional Caco-2 permeability was assayed. Caco-2 cells were seeded onto permeable polycarbonate supports and allowed to differentiate for about 3 weeks prior to being used in the assays. The cells were then exposed to the compounds from either the apical or basolateral sides and incubated at 37 C for up to 90 minutes under light agitation. Compound transport was then measured using LC/MS/MS analysis at 30, 60, and 90 minutes.

The nature of series [4]: Human liver microsome stability. In kind it is in vitro ADME. As to conditions: for Human Liver Microsome Stability Half Life: 37° C., 45 minutes incubation; for Human Liver Microsome Stability % QH: percentage of hepatic blood flow. As for the experimental part: The stability of the claimed compounds was determined in the presences of human liver microsomes. The compounds were incubated with the microsomes at 37° C. for 45 minutes. Samples were analyzed using LC-MS/MS. Data analysis included half-life, clearance rate, and the percentage of hepatic blood flow (% QH) for each of the compounds in the different species.
(In general: Microsomes from liver hold many membrane-bound enzymes, among them those of drug oxidation.)

Series [5] relates to ARPE19/HPV16 (HPV Immortalized RPE). As to the kind of experiment: Cell line screen (potency assay). In kind it is cell-based. As to conditions: ARPE-19, AICDA expression Negative. How it is done:
as §2, §3
(§4) Compounds from master plate were then added to the culture plate. The culture plates were removed from the incubator, and set inside the biosafety cabinet. Using a liquid handler, 20 ul from wells B2 to B11 through G2 to G11 of master plate were aspirated, and dispensed into wells B2 to B11 through G2 to G11 of culture plate. This set was continued with each culture plate. Once the culture plates acquired their 20 ul of compound dilutions, they were placed back into the incubator, until their reads on Day 7 of experiment. Cell death was measured on Day 7 of the experiment using Cell-Titer Glo and a Promega Plate reader. […]

In the next series the test system is CCRF-SB (Leukemia). As to the kind of experiment: Cell line screen (potency assay). In kind it is cell-based. As to conditions: Homo sapiens, AICDA expression High. How it is done:
as §2, §3, §4

In another series the test system is KG-1 (Leukemia). As to the kind of experiment: Cell line screen (potency assay). In kind it is cell-based. The settings on record: AICDA expression Negative. As for the experimental part:
as §2, §3, §4

The next series has as its system KYSE-510 (Head and Neck). As to the kind of experiment: Cell line screen (potency assay). In kind it is cell-based. As to conditions: Homo sapiens, AICDA expression Negative. How it is done: as §2, §3, §4
Another series deals with KYSE-70 (Head and Neck). Briefly: Cell line screen (potency assay). In kind it is cell-based. The settings on record: Homo sapiens, AICDA expression Low. As for the experimental part:
as §2, §3, §4

The next series has as its system OV56 (Ovary). Briefly: Cell line screen (potency assay). In kind it is cell-based. As to conditions: AICDA expression Low. How it is done:
as §2, §3, §4

The next series relates to TOV-1120D (Ovary). As to the kind of experiment: Cell line screen (potency assay). As to conditions: AICDA expression Negative. In kind it is cell-based. How it is done: as §2, §3, §4
The subject of the next series is U-698-M (Lymphoma). Briefly: Cell line screen (potency assay). In kind it is cell-based. The settings on record: AICDA expression High. How it is done:
as §2, §3, §4

A further series concerns WSU-FSCCL (Lymphoma). As to the kind of experiment: Cell line screen (potency assay). As to conditions: AICDA expression Negative. In kind it is cell-based. How it is done: as §2, §3, §4
Series [6] can be described thus: Pharmacokinetic (PK) study. In kind it is in vivo, Rat. The settings on record: po @ 80 mg/kg (30% PEG400, 10% Vitamin E TPGS in water). As for the experimental part: PK studies in mice were used to determine the fate of the compounds in a whole organism. Rats were treated with the compounds either orally of via IV at the indicated doses and followed for up to 24 hours. Plasma samples were taken at different time points and analyzed by LC-MS.

Where [7] appears, read: 168 h, Daudi cells (AID positive), cell death on Day 7, read-out: AID+ EC50.
Setting [8] is: Daudi (Lymphoma), AICDA expression High, read-out: EC50.
[9] abbreviates: Homo sapiens, WI-38 cells (AID negative), read-out: AID− EC50.
[10] abbreviates: WI-38 (Normal Human Lung Fibroblast), AICDA expression Negative, read-out: EC50.
Where [11] appears, read: Caco-2, apical to basolateral, read-out: AB Recovery %.
Where [12] appears, read: Caco-2, basolateral to apical, read-out: BA Recovery %.

Read-outs that look alike come from different tables or passages of the source.

The EC50 is the concentration at which the effect is half-maximal. Regarding `CC(C)OC(=O)N[C@H]1CC[C@H](c2ncc(-c3ccc(NC(=O)NCc4ccccn4)cc3S(=O)(=O)NC(C)(C)C)s2)CC1` [Compound 29], the EC50 in series [1] (setting [7]) is ≤ 100 nM; in series [1] (setting [8]), 43 nM; in [2] (setting [9]), > 1000 nM; in series [2] (setting [10]) it was > 10000 nM; in series [5], > 10000 nM; with CCRF-SB (Leukemia), 1280 nM. The EC50 was > 10000 nM in the series with KG-1 (Leukemia); > 10000 nM in the series on KYSE-510 (Head and Neck); 4660 nM with KYSE-70 (Head and Neck); 9090 nM with OV56 (Ovary); 9170 nM in the series with TOV-1120D (Ovary); 113 nM with U-698-M (Lymphoma). In the series with WSU-FSCCL (Lymphoma), this compound returned an EC50 of 67 nM. The recovery at 90 min in series [3] (setting [11]) was 93.9%; in series [3] (setting [12]), 90.9%. Besides, in [4], the “Human Liver Microsome Stability Half Life” value was 0.342 h. Besides, in [4], the “Human Liver Microsome Stability % QH” value is 78.8%. Further, the “F (%) @ 5 mg/kg” value in [6] (Rat Female) was found to be 8.39%; in series [6] (Rat Male), 3.69%. Besides, the “T1/2” value in series [6] (Rat Female) was found to be 4.66 h; in series [6] (Rat Male) it was 3.97 h.
`CC(C)OC(=O)N[C@H]1CC[C@H](c2ncc(-c3ccc(NC(=O)NCc4ncccc4F)cc3S(=O)(=O)NC(C)(C)C)s2)CC1` [Compound 31]: the EC50 in series [1] (setting [7]) was ≤ 100 nM; in series [1] (setting [8]), 20 nM; in [2] (setting [9]), > 1000 nM; in series [2] (setting [10]), > 10000 nM; in [5], > 10000 nM; in the series with CCRF-SB (Leukemia), 2160 nM. The EC50 in the series on KG-1 (Leukemia) was 8780 nM; in the series with KYSE-510 (Head and Neck), > 10000 nM; in the series with KYSE-70 (Head and Neck), 4700 nM; in the series with U-698-M (Lymphoma), 31 nM; in the series with WSU-FSCCL (Lymphoma) it was < 40 nM. For the same compound, the values for the recovery at 90 min in series [3] (setting [11]) and in [3] (setting [12]) were 70.5% and 92.3%, respectively. Besides, the “Human Liver Microsome Stability Half Life” value in series [4] is 0.373 h. Further, the “Human Liver Microsome Stability % QH” value in [4] is 77.3%. The “F (%) @ 5 mg/kg” value in series [6] (Rat Female) turned out to be 2.77%; in series [6] (Rat Male), 1.49%. Moreover, the “T1/2” value in [6] (Rat Female) came to 4.75 h; in series [6] (Rat Male) it was 3.79 h.
